{
  "source": "patent US20230026616A1",
  "about": "“PYRIMIDOIMIDAZOLE COMPOUNDS USED AS DNA-PK INHIBITORS” (MEDSHINE DISCOVERY INC., priority 2019, published 2023)",
  "key": {"Human DNA-PK": {"target": "T1, Human DNA-PK (Homo sapiens, UniProt P78527)", "T1 construct": "purchased Eurofins (Eurofins Pharma Discovery Service)", "test": "DNA-dependent protein kinase (DNA-PK) inhibitory activity screening (Eurofins, HTRF)", "assay_type": "biochemical", "conditions": "ATP: 10 μM; read-out: DNA-PK kinase inhibition IC50", "description": "Experimental Embodiment 1: DNA-Dependent Protein Kinase (DNA-PK) Inhibitory Activity Screening Experiment\nThis experiment was tested in the Eurofins\nHuman DNA-PK; Mg/ATP; GST-cMyc-p53; EDTA; Ser15 antibody; ATP: 10 μM.\nExperimental Method (Eurofins Pharma Discovery Service):\nDNA-PK (h) was incubated in assay buffer containing 50 nM GST-cMyc-p53 and Mg/ATP (according to the required concentration). The reaction was initiated by adding Mg/ATP mixture. After 30 minutes of incubation at room temperature, the reaction was stopped by adding a stop solution containing EDTA. Finally, detection buffer (containing labeled anti-GST monoclonal antibody and europium-labeled anti-Ser15 antibody against phosphorylated p53) was added. The plate was then read in time-resolved fluorescence mode, and the homogeneous time-resolved fluorescence (HTRF) signal was determined according to the formula HTRF=10000×(Em665 nm/Em620 nm)."}, "[1]": {"test": "Pharmacokinetic evaluation (1): cassette PK in Balb/c male mice, plasma", "assay_type": "in vivo", "conditions": "for AUC(0-t) / C0 / clearance / half-life / Vd / Cmax / Tmax / Tlast / AUC0-last / T1/2: mouse plasma; for Vd: read-out: Vdss; for F: mouse, PO 2 mg/kg vs IV 0.4 mg/kg", "description": "Test compounds were mixed with 10% dimethyl sulfoxide/50% polyethylene glycol 200/40% water (compounds 1, 4, 10, 17) or 20% N,N-dimethylacetamide/80% water (compound 5), vortexed and sonicated to prepare a nearly clear solution of 0.08 mg/mL (compounds 1, 4, 10, 17) or 0.50 mg/mL (compound 5), then filtered through a microporous membrane for next step. Balb/c male mice of 18 to 20 grams were selected and administered intravenously with the candidate compound solution at a dose of 0.4 (compounds 1, 4, 10, 17) or 1 mg/kg (compound 5). Test compounds were mixed with 10% dimethyl sulfoxide/50% polyethylene glycol 200/40% water (compounds 1, 4, 10, 17) or 20%-hydroxypropyl-β-cyclodextrin (compound 5), vortexed and sonicated to prepare a nearly clear solution of 0.2 mg/mL (compounds 1, 4, 10, 17) or 1 mg/mL (compound 5), then filtered through a microporous membrane for next step. Balb/c male mice of 18 to 20 grams were selected and orally administered with the candidate compound solution at a dose of 2 (compounds 1, 4, 10, 17) or 5 mg/kg (compound 5). Whole blood was collected for a certain period of time, and plasma was prepared, then drug concentration was detected by LC-MS/MS method, and pharmacokinetic parameters were calculated by Phoenix WinNonlin software (Pharsight, USA).\nIV: intravenous injection; PO: oral; C0: instantaneous […] concentration after intravenous injection; Cmax: highest plasma concentration after administration; Tmax: time required to reach peak of drug concentration after administration; T1/2: time required for the plasma drug concentration to decrease by half, Vdss: apparent volume of distribution, refers to the proportional constant of the drug dose in vivo and the blood drug concentration when the drug reaches a dynamic equilibrium in vivo. Cl: clearance rate, refers to the […] cleared from the body per unit time; Tlast: time at the last detection point; AUC0-last: area under the drug-time curve, refers to the area covered by the plasma concentration curve and the time axis; F: a measure of the speed and degree of drug absorption into the blood circulation, which is an important indicator for evaluating the degree of drug absorption."}, "[2]": {"conditions": "male, Balb/c, PO 2 mg/kg, read-out: Tmax"}},
  "note": "Read-outs that look alike come from different tables or passages of the source.",
  "data": [
    {"smiles": "Cc1cc2nccn2cc1Nc1ncc2c(n1)n(N1CC3CCC(C1)O3)c(=O)n2C", "note": "[Compound 19]", "values": [
      {"measurement": "IC50", "setting": "Human DNA-PK", "value": 0.6, "unit": "nM"}
    ]},
    {"smiles": "Cc1cc2ncnn2cc1Nc1ncc2c(n1)n(N1CCC(C#N)CC1)c(=O)n2C", "note": "[Compound 14]", "values": [
      {"measurement": "IC50", "setting": "Human DNA-PK", "value": 5, "unit": "nM"}
    ]},
    {"smiles": "Cc1cc2ncnn2cc1Nc1ncc2c(n1)n(N1CCOC3(CC3)C1)c(=O)n2C", "note": "[Compound 10]", "values": [
      {"measurement": "AUC(0-t)", "setting": "[1]; male, Balb/c, IV 0.4 mg/kg", "value": 0.64, "unit": "µM·h"},
      {"measurement": "C0", "setting": "[1]; male, Balb/c, IV 0.4 mg/kg", "value": 1120, "unit": "nM"},
      {"measurement": "clearance", "setting": "[1]; male, Balb/c, IV 0.4 mg/kg", "value": 25.4, "unit": "mL/min/kg"},
      {"measurement": "half-life", "setting": "[1]; male, Balb/c, IV 0.4 mg/kg", "value": 35.5, "unit": "min"},
      {"measurement": "Vd", "setting": "[1]; male, Balb/c, IV 0.4 mg/kg", "value": 0.883, "unit": "L/kg"},
      {"measurement": "AUC(0-t)", "setting": "[1]; male, Balb/c, PO 2 mg/kg", "value": 3.83, "unit": "µM·h"},
      {"measurement": "Cmax", "setting": "[1]; male, Balb/c, PO 2 mg/kg", "value": 2060, "unit": "nM"},
      {"measurement": "half-life", "setting": "[1]; male, Balb/c, PO 2 mg/kg", "value": 73.2, "unit": "min"},
      {"measurement": "Tmax", "setting": "[1]; [2]", "value": 30, "unit": "min"},
      {"measurement": "Tlast", "setting": "[1]; IV 0.4 mg/kg", "value": 4, "unit": "h"},
      {"measurement": "Tlast", "setting": "[1]; PO 2 mg/kg", "value": 8, "unit": "h"},
      {"measurement": "F", "setting": "[1]", "value": 120, "unit": "%"},
      {"measurement": "IC50", "setting": "Human DNA-PK", "value": 2.5, "unit": "nM"}
    ]},
    {"smiles": "Cc1cn2ncnc2cc1Nc1ncc2c(n1)n(N1C3CCC1COC3)c(=O)n2C", "note": "[Compound 22]", "values": [
      {"measurement": "IC50", "setting": "Human DNA-PK", "value": 0.4, "unit": "nM"}
    ]},
    {"smiles": "Cc1nc2nccn2cc1Nc1ncc2c(n1)n(N1CC3CCC(C1)O3)c(=O)n2C", "note": "[Compound 23]", "values": [
      {"measurement": "IC50", "setting": "Human DNA-PK", "value": 10, "unit": "nM"}
    ]},
    {"smiles": "Cc1cn2ncnc2cc1Nc1ncc2c(n1)n(N1CC3CCC(C1)O3)c(=O)n2C", "note": "[Compound 21]", "values": [
      {"measurement": "IC50", "setting": "Human DNA-PK", "value": 0.5, "unit": "nM"}
    ]},
    {"smiles": "Cc1cc2ncnn2cc1Nc1ncc2c(n1)n(N1CC3CC3C1)c(=O)n2C", "note": "(stereo not drawn) [Compound 16]", "values": [
      {"measurement": "IC50", "setting": "Human DNA-PK", "value": 0.5, "unit": "nM"}
    ]},
    {"smiles": "Cc1cc2ncnn2cc1Nc1ncc2c(n1)n(N1CC3CCCC3C1)c(=O)n2C", "note": "(stereo not drawn) [Compound 15]", "values": [
      {"measurement": "IC50", "setting": "Human DNA-PK", "value": 1, "unit": "nM"}
    ]},
    {"smiles": "Cc1cc2nncn2cc1Nc1ncc2c(n1)n(N1C3CCC1COC3)c(=O)n2C", "note": "[Compound 18]", "values": [
      {"measurement": "IC50", "setting": "Human DNA-PK", "value": 0.9, "unit": "nM"}
    ]},
    {"smiles": "Cc1cc2ncnn2cc1Nc1ncc2c(n1)n(N1CCC3(CCO3)CC1)c(=O)n2C", "note": "[Compound 12]", "values": [
      {"measurement": "IC50", "setting": "Human DNA-PK", "value": 4, "unit": "nM"}
    ]},
    {"smiles": "Cc1cc2ncnn2cc1Nc1ncc2c(n1)n(N1CCC3(CC1)COC3)c(=O)n2C", "note": "[Compound 11]", "values": [
      {"measurement": "IC50", "setting": "Human DNA-PK", "value": 5, "unit": "nM"}
    ]},
    {"smiles": "Cc1cc2nccn2cc1Nc1ncc2c(n1)n(N1C3CCC1COC3)c(=O)n2C", "note": "[Compound 20]", "values": [
      {"measurement": "IC50", "setting": "Human DNA-PK", "value": 0.9, "unit": "nM"}
    ]},
    {"smiles": "Cc1cc2ncnn2cc1Nc1ncc2c(n1)n(N1CCOCC1)c(=O)n2C", "note": "[Compound 1]", "values": [
      {"measurement": "C0", "setting": "[1]; male, Balb/c, IV 0.4 mg/kg", "value": 959, "unit": "nM"},
      {"measurement": "clearance", "setting": "[1]; male, Balb/c, IV 0.4 mg/kg", "value": 37.7, "unit": "mL/min/kg"},
      {"measurement": "Vd", "setting": "[1]; male, Balb/c, IV 0.4 mg/kg", "value": 1.51, "unit": "L/kg"},
      {"measurement": "AUC0-last", "setting": "[1]; IV 0.4 mg/kg", "value": 0.426, "unit": "µM·h"},
      {"measurement": "T1/2", "setting": "[1]; IV 0.4 mg/kg", "value": 35.9, "unit": "min"},
      {"measurement": "Tlast", "setting": "[1]; IV 0.4 mg/kg", "value": 4, "unit": "h"},
      {"measurement": "AUC0-last", "setting": "[1]; PO 2 mg/kg", "value": 2.497, "unit": "µM·h"},
      {"measurement": "Cmax", "setting": "[1]; PO 2 mg/kg", "value": 1420, "unit": "nM"},
      {"measurement": "T1/2", "setting": "[1]; PO 2 mg/kg", "value": 50.5, "unit": "min"},
      {"measurement": "Tlast", "setting": "[1]; PO 2 mg/kg", "value": 8, "unit": "h"},
      {"measurement": "Tmax", "setting": "[1]; PO 2 mg/kg", "value": 30, "unit": "min"},
      {"measurement": "F", "setting": "[1]", "value": 96.4, "unit": "%"},
      {"measurement": "IC50", "setting": "Human DNA-PK", "value": 2, "unit": "nM"}
    ]},
    {"smiles": "Cc1nc2nccn2cc1Nc1ncc2c(n1)n(N1C3CCC1COC3)c(=O)n2C", "note": "[Compound 24]", "values": [
      {"measurement": "IC50", "setting": "Human DNA-PK", "value": 68, "unit": "nM"}
    ]},
    {"smiles": "Cc1cc2ncnn2cc1Nc1ncc2c(n1)n(N1C3CCC1COC3)c(=O)n2C", "note": "[Compound 4]", "values": [
      {"measurement": "AUC(0-t)", "setting": "[1]; male, Balb/c, IV 0.4 mg/kg", "value": 0.286, "unit": "µM·h"},
      {"measurement": "C0", "setting": "[1]; male, Balb/c, IV 0.4 mg/kg", "value": 919, "unit": "nM"},
      {"measurement": "clearance", "setting": "[1]; male, Balb/c, IV 0.4 mg/kg", "value": 57, "unit": "mL/min/kg"},
      {"measurement": "half-life", "setting": "[1]; male, Balb/c, IV 0.4 mg/kg", "value": 14.4, "unit": "min"},
      {"measurement": "Vd", "setting": "[1]; male, Balb/c, IV 0.4 mg/kg", "value": 1.08, "unit": "L/kg"},
      {"measurement": "AUC(0-t)", "setting": "[1]; male, Balb/c, PO 2 mg/kg", "value": 1.74, "unit": "µM·h"},
      {"measurement": "Cmax", "setting": "[1]; male, Balb/c, PO 2 mg/kg", "value": 1600, "unit": "nM"},
      {"measurement": "half-life", "setting": "[1]; male, Balb/c, PO 2 mg/kg", "value": 36.5, "unit": "min"},
      {"measurement": "Tmax", "setting": "[1]; [2]", "value": 15, "unit": "min"},
      {"measurement": "Tlast", "setting": "[1]; IV 0.4 mg/kg", "value": 2, "unit": "h"},
      {"measurement": "Tlast", "setting": "[1]; PO 2 mg/kg", "value": 4, "unit": "h"},
      {"measurement": "F", "setting": "[1]", "value": 123, "unit": "%"},
      {"measurement": "IC50", "setting": "Human DNA-PK", "value": 1, "unit": "nM"}
    ]},
    {"smiles": "Cc1cc2ncnn2cc1Nc1ncc2c(n1)n(N1CCOC3(CCC3)C1)c(=O)n2C", "note": "[Compound 13]", "values": [
      {"measurement": "IC50", "setting": "Human DNA-PK", "value": 2, "unit": "nM"}
    ]},
    {"smiles": "Cc1cc2ncnn2cc1Nc1ncc2c(n1)n(N1CCC(F)(F)CC1)c(=O)n2C", "note": "[Compound 7]", "values": [
      {"measurement": "IC50", "setting": "Human DNA-PK", "value": 2, "unit": "nM"}
    ]},
    {"smiles": "Cc1cc2ncnn2cc1Nc1ncc2c(n1)n(N1CC3CC(C1)O3)c(=O)n2C", "note": "[Compound 6]", "values": [
      {"measurement": "IC50", "setting": "Human DNA-PK", "value": 1, "unit": "nM"}
    ]}
  ]
}
